Converted amounts (≈) assume the structure as drawn. “And” between values parts separate entries of the source, which are not always exact repeats. Equal entries are not always repeated. Where two headings read alike, the source gives them in different places.
Columns and labels:
[1] = Solubility of ondansetron in pMDI medium; assay type: physicochemical; settings: for solubility at 8 days: organic solvent or mixture, thermodynamic from solid
Experimental: The solubility of ondansetron was measured in a pMDI medium of HFA 134 as well as a mixture of HFA 134 and ethanol.

[2] = Particle size distribution of spray dried ondansetron fine powder by Malvern Mastersizer; assay type: physicochemical; settings: typical particle size distribution
Experimental: The Particle Size Distribution of the Ondansetron Fine Powder, prepared by Spray Drying using the above parameters was measured by Malvern Mastersizer (Malvern Instruments, UK) at GEA Process Engineering, Inc., Columbia, Md., USA.

[3] = HFA 134a with Ethanol (9:1), 8 days

Row | SMILES | solubility at 8 days ([1]; HFA 134a (pMDI medium), HFA 134a alone, read-out: Solubility in HFA 134a, Average (RSD)) [µg/mL] | solubility at 8 days ([1]; HFA 134a (pMDI medium), HFA 134a alone, read-out: Solubility in HFA 134a, single determinations) [µg/mL] | Solubility in HFA 134a, single determinations ([1]; HFA 134a alone, 8 days) | Solubility in HFA 134a as % w/w ([1]; HFA 134a alone, 8 days, from gravity of HFA 134a 1.21 g/mL) [% w/w] | Solubility in HFA 134a with Ethanol (9:1) as % w/w [1, 3] [% w/w] | Solubility in HFA 134a with Ethanol (9:1), single determinations [1, 3] | solubility at 8 days ([1]; HFA 134a with ethanol (9:1) (pMDI medium), HFA 134a with Ethanol (9:1), read-out: Solubility in HFA 134a with Ethanol (9:1), Average (RSD)) [µg/mL] | solubility at 8 days ([1]; HFA 134a with ethanol (9:1) (pMDI medium), HFA 134a with Ethanol (9:1), read-out: Solubility in HFA 134a with Ethanol (9:1), single determinations) [µg/mL] | Cumulative % on <10 μm [2] [%] | D10 [2] [μm] | D50 [2] [μm] | D90 [2] [μm] | Mean Size [2] [μm]
1 | Cc1nccn1CC1CCc2c(c3ccccc3n2C)C1=O (stereo not shown) [ondansetron] | 37.8 (≈ 129 µM) | 34.7 (≈ 118 µM) | 35.97 µg/mL and 40.27 µg/mL and 40.26 µg/mL | 0.00312 | 0.01668 | 196.85 µg/mL and 215.75 µg/mL and 195.17 µg/mL | 202 (≈ 688 µM) | 199 (≈ 680 µM) | – | – | – | – | –
2 | Cc1nccn1CC1CCc2c(c3ccccc3n2C)C1=O (stereo not shown) [Ondansetron Fine Powder, ondansetron] | – | – | – | – | – | – | – | – | 99.5 | 3.23 | 5.01 | 7.22 | 4.80
